Test results published in ChEMBL document CHEMBL3612067, “Synthesis of a series of unsaturated ketone derivatives as selective and reversible monoamine oxidase inhibitors” (Bioorg Med Chem, 2015).

What was measured:
[1] = biological target: T1, Amine oxidase [flavin-containing] B (Homo sapiens, UniProt P27338)
T1 sequence (P27338 whole entry): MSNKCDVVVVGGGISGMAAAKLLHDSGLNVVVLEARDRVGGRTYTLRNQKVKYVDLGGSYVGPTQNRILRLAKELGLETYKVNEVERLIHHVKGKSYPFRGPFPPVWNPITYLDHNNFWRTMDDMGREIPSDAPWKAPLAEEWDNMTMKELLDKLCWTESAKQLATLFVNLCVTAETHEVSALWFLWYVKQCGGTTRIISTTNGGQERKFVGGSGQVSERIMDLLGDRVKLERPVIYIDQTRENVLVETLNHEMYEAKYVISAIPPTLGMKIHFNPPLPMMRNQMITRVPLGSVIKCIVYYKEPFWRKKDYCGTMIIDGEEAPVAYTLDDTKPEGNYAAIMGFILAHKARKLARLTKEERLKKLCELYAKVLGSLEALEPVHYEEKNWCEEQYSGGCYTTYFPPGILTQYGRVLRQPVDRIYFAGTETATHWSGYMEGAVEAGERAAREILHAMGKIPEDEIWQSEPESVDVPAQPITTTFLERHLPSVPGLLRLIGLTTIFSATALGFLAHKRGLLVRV

[2] = biological target: T2, Amine oxidase [flavin-containing] A (Homo sapiens, UniProt P21397)
T2 sequence (P21397 whole entry): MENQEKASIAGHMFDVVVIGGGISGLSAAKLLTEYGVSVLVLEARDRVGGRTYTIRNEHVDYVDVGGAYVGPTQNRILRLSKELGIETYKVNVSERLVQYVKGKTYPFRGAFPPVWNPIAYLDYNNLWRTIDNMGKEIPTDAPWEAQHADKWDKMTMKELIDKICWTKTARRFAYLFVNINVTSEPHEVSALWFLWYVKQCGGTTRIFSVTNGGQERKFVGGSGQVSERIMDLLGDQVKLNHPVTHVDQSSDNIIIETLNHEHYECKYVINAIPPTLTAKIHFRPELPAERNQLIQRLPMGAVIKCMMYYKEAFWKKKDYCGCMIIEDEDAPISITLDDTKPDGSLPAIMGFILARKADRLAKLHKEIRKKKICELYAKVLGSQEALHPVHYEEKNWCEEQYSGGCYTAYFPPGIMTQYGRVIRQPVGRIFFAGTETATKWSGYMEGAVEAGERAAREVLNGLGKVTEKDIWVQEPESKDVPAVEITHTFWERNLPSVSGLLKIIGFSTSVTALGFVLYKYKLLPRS

[3] = biological target: T1, Amine oxidase [flavin-containing] B; experiment: Reversible inhibition of recombinant human MAOB using benzylamine as substrate at 2 uM measured after 3 times washout of drug by Amplex red based spectrophotometric analysis
[4] = Effect on H2O2 scavenging activity of the compound up to 50 uM after 1.5 hrs by Amplex red/horseradish peroxidase detection method; format: physicochemical
[5] = biological target: T1, Amine oxidase [flavin-containing] B; conditions: 0.5 h, read-out: INH
[6] = Effect on H2O2 scavenging activity of the compound after 1.5 hrs by Amplex red/horseradish peroxidase detection method; format: physicochemical

Row | Compound | IC50 [1] [µM] | IC50 [2] [µM] | inhibition (INH) [3] | Activity [4] | inhibition at 2 µM [5] [%] | Activity [6]
1 | COc1ccc(C(=O)/C=C/c2ccccc2C(F)(F)F)cc1 | 0.016 | > 100 | Active | Not Active | > 80 | 
2 | O=C(/C=C/c1ccccc1Cl)Nc1ccccc1 | 2.82 | > 100 |  |  |  | 
3 | COc1cccc(C(=O)/C=C/c2ccccc2)c1 | 0.793 | > 100 |  |  |  | 
4 | COc1ccccc1C(=O)/C=C/c1ccccc1C(F)(F)F | 0.253 | > 100 |  |  |  | 
5 | COc1cccc(C(=O)/C=C/c2ccccc2C(F)(F)F)c1 | 2.12 | > 100 |  |  |  | 
6 | COc1ccc(C(=O)/C=C/c2ccccc2Cl)cc1 | 0.069 | > 100 |  |  |  | 
7 | COc1ccc(C(=O)/C=C/c2ccccc2OC)cc1 | 0.419 | > 100 |  |  |  | 
8 | COc1ccccc1/C=C/C(=O)c1ccc(O)cc1 | 0.624 | > 100 |  |  |  | 
9 | O=C(/C=C/c1ccccc1C(F)(F)F)c1ccc(O)cc1 | 0.057 | > 100 |  |  |  | 
10 | O=C(/C=C/c1ccccc1C(F)(F)F)Nc1ccccc1 | 8.39 | > 100 |  |  |  | 
11 | COc1ccc(NC(=O)/C=C/c2ccccc2C(F)(F)F)cc1 | > 10 | > 100 |  |  |  | 
12 | O=C(/C=C/c1ccccc1C(F)(F)F)Nc1ccc(O)cc1 | > 10 | 9.22 |  |  |  | 
13 | O=C(/C=C/c1ccccc1C(F)(F)F)Nc1cccc(O)c1 | 5.98 | > 100 |  |  |  | 
14 | O=C(/C=C/c1ccccc1C(F)(F)F)Nc1cccc(F)c1 | 3.37 | > 100 |  |  |  | 
15 | O=C(/C=C/c1ccc(C(F)(F)F)cc1)Nc1cccc(F)c1 | 0.283 | > 100 |  |  |  | 
16 | O=C(/C=C/c1ccc(C(F)(F)F)cc1)Nc1ccccc1F | 0.58 | > 100 |  |  |  | 
17 | O=C(/C=C/c1ccc(C(F)(F)F)cc1)Nc1ccc(F)cc1 | 0.223 | > 100 |  |  |  | 
18 | COc1ccc(OC(=O)/C=C/c2ccccc2Cl)cc1 | 0.937 | > 100 |  |  |  | 
19 | COc1ccc(C(=O)/C=C/c2ccc(C(F)(F)F)cc2)cc1 | 0.199 | > 100 |  |  |  | 
20 | COc1ccc(C(=O)/C=C/c2ccccc2F)cc1 | 0.056 | > 100 | Active | Not Active | > 80 | 
21 | COc1ccc(C(=O)/C=C/c2ccccc2)cc1 [4'-METHOXYCHALCONE] | 0.471 | > 100 |  |  |  | 
22 | O=C(O[C@@H]1Cc2c(O)cc(O)cc2O[C@@H]1c1cc(O)c(O)c(O)c1)c1cc(O)c(O)c(O)c1 [EPIGALOCATECHIN GALLATE] |  |  |  |  |  | Dose-dependent effect

Second part, led by results:

Row | IC50 [1] [µM] | IC50 [2] [µM] | inhibition (INH) [3] | Activity [4] | inhibition at 2 µM [5] [%] | Compound | Activity [6]
23 | 5.21 | > 100 |  |  |  | O=C(/C=C/c1ccccc1Cl)Nc1cccc(O)c1 | 
24 | 0.145 | > 100 |  |  |  | COc1ccc(C(=O)/C=C/c2cccc(C(F)(F)F)c2)cc1 | 
25 | > 10 | > 100 |  |  |  | COc1ccccc1C(=O)/C=C/c1ccccc1 | 
26 | 1.4 | > 100 |  |  |  | COc1ccc(C(=O)/C=C/c2cccc(OC)c2)cc1 | 
27 | > 10 | 16.7 |  |  |  | O=C(/C=C/c1ccccc1Cl)Nc1ccc(O)cc1 | 
28 | 4.89 | > 100 |  |  |  | O=C(/C=C/c1cccc(C(F)(F)F)c1)Nc1cccc(F)c1 | 
29 | 5.88 | > 100 |  |  |  | O=C(/C=C/c1ccccc1C(F)(F)F)Oc1ccccc1 | 
30 | 2.59 | > 100 |  |  |  | COc1ccc(OC(=O)/C=C/c2ccccc2C(F)(F)F)cc1 | 
31 | > 10 | > 100 |  |  |  | COc1ccc(NC(=O)/C=C/c2ccccc2Cl)cc1 | 
32 | > 10 | > 100 |  |  |  | COc1ccc(/C=C/C(=O)c2ccc(OC)cc2)cc1 [4,4'-DIMETHOXYCHALCONE] | 
33 |  |  | Not Active |  |  | C[C@H](NCc1ccc(OCc2cccc(F)c2)cc1)C(N)=O [SAFINAMIDE] | 
